Reference: US9724544B2, “Vitamin D promoting sunscreen” (priority 2009, dated 2017)

Test system: not listed separately
Assay: UV absorption spectra (absorbance range, maxima, critical wavelength) of UV filters and other ingredients
Assay type: physicochemical
Settings: over time under the sun

| ability to absorb radiation in the 290 to 315 nm range over time | Molecule |
| --- | --- |
| increases over time | COc1ccc(C(=O)CC(=O)c2ccc(C(C)(C)C)cc2)cc1 [Avobenzone, 4-tert-butyl-4′-methoxy-dibenzoylmethane] |

Test system: not given
Assay: not given
Settings: approximately 295 to 315 nm; cited from earlier work

| Molecule | absorption in the vitamin D producing range |
| --- | --- |
| 4-Bis(polyethoxy)para-aminobenzoic acid polyethoxyethyl ester [PEG-25 PABA] | minimal absorption |
| O=C(c1ccc(O)cc1O)c1ccc(O)cc1O [2,2^1,4,4′-Tetrahydroxybenzophenone] | high percentage |
| COc1ccc(C(=O)c2ccc(OC)cc2O)c(O)c1 [2,2′-Dihydroxy-4,4′-dimethoxybenzophenone] | high percentage |
| O=C(c1ccccc1)c1ccc(O)cc1O [2,4-Dihydroxybenzophenone] | high percentage |
| CCCCCCCCOc1ccc(C(=O)c2ccccc2)c(O)c1 [2-Hydroxy-4-(Octyloxy)Benzophenone] | high percentage |
| Cc1ccc(C=C2C(=O)C3(C)CCC2C3(C)C)cc1 (centres unmarked) [4-Methylbenzylidene camphor, 3-(4-methylbenzyliden)camphor] | high percentage |
| Nc1ccc(C(=O)O)cc1 [Aminobenzoic acid, 4-aminobenzoic acid] | high percentage |
| COc1ccc(C(=O)CC(=O)c2ccc(C(C)(C)C)cc2)cc1 [Avobenzone, 4-tert-butyl-4′-methoxy-dibenzoylmethane] | relative lack of absorption |
| CCCCC(CC)COc1ccc(-c2nc(-c3ccc(OC)cc3)nc(-c3ccc(OCC(CC)CCCC)cc3O)n2)c(O)c1 (centres unmarked) [Bemotrizinol, bis-ethylhexyloxyphenol methoxyphenyl triazine] | high percentage |
| O=S(=O)([O-])c1cc(S(=O)(=O)O)cc2[nH]c(-c3ccc(-c4nc5c(S(=O)(=O)[O-])cc(S(=O)(=O)O)cc5[nH]4)cc3)nc12.[Na+].[Na+] [Bisdisulizole disodium, disodium phenyl dibenzimidazole tetrasulfonate] | relative lack of absorption |
| CCOCCOC(=O)C=Cc1ccc(OC)cc1 [Cinoxate, 2-ethoxyethyl p-methoxycinnamate] | high percentage |
| CC(=O)C=CC=C1C2CCC(C2)C1(C)C (centres unmarked) [Digalloyl trioleate, 5-(3,3-Dimethyl 2 norbornyliden)-3penten-2-one] | high percentage |
| CCCCC(CC)COC(=O)c1ccc(Nc2nc(Nc3ccc(C(=O)OCC(CC)CCCC)cc3)nc(Nc3ccc(C(=O)OCC(CC)CCCC)cc3)n2)cc1 (centres unmarked) [Ethylhexyl Triazone] | high percentage |
| Nc1ccc(C(=O)OCC(O)CO)cc1 (centres unmarked) [Glyceryl Aminobenzoate, glyceryl 1-(4-aminobenzoate)] | high percentage |
| CC1CC(OC(=O)c2ccccc2O)CC(C)(C)C1 (centres unmarked) [Homosalate, 3,3,5-trimethylcyclohexyl salicylate] | minimal to moderate |
| CCCCC(CC)COC(=O)c1ccc(Nc2nc(Nc3ccc(C(=O)NC(C)(C)C)cc3)nc(Nc3ccc(C(=O)OCC(CC)CCCC)cc3)n2)cc1 (centres unmarked) [Iscotrizinol, diethylhexyl butamido triazone] | high percentage |
| COc1ccc(C=CC(=O)OCCC(C)C)cc1 [Isoamyl p-methoxycinnamate] | high percentage |
| COc1ccc(C(=O)c2ccc(C)cc2)c(O)c1 [Mexenon, 2-hydroxy-4-methoxy-4′-methyl-benzophenone] | minimal to moderate |
| CCCCC(CC)COC(=O)c1ccccc1O (centres unmarked) [Octisalate, 2-ethylhexyl salicylate] | minimal to moderate |
| CCCCC(CC)COC(=O)C(C#N)=C(c1ccccc1)c1ccccc1 (stereo not drawn) [Octocrylene, 2-ethylhexyl alpha-cyano-beta-phenylcinnamate] | minimal to moderate |
| COc1ccc(C(=O)c2ccccc2)c(O)c1 [Oxybenzone, 2-hydroxy-4-methoxybenzophenone] | minimal to moderate |
| CCCCC(CC)COC(=O)c1ccc(N(C)C)cc1 (centres unmarked) [Padimate-0, 2-ethylhexyl 4-dimethylaminobenzoate] | high percentage |
| CCCCCOC(=O)c1ccc(N(C)C)cc1 [Padimate-A, amyl p-dimethylaminobenzoate] | high percentage |
| COc1cc(O)c(C(=O)c2ccccc2)cc1S(=O)(=O)O [Sulisobenzone, 2-hydroxy-4-methoxybenzophenone-5-sulfonic acid] | minimal to somewhat moderate |
| CCCCCCOC(=O)c1ccccc1C(=O)c1ccc(N(CC)CC)cc1O [Uvinul A Plus, diethylamino hydroxybenzoyl hexyl benzoate] | relative lack of absorption |

Same assay, conditions: dissolved in alcohol; cited from earlier work

| Molecule | maximum absorbance [nm] |
| --- | --- |
| Nc1ccc(C(=O)O)cc1 [Aminobenzoic acid, 4-aminobenzoic acid] | 289 |

Same assay, conditions: dissolved in water; cited from earlier work

| Molecule | maximum absorbance [nm] |
| --- | --- |
| Nc1ccc(C(=O)O)cc1 [Aminobenzoic acid, 4-aminobenzoic acid] | 278 |

Test system: primary human keratinocytes
Assay: not given
Settings: De Haes et al. 2005; cited from earlier work

| Molecule | protection against UVB-induced DNA damage |
| --- | --- |
| C=C1/C(=C\C=C2/CCC[C@]3(C)[C@@H]([C@H](C)CCCC(C)(C)O)CC[C@@H]23)C[C@@H](O)C[C@@H]1O [1,25(OH)2D3, 1,25-dihydroxyvitamin D3] | protects |
